Our source for the IC50 values is patent US20240368135A1 (VERTEX PHARMACEUTICALS INCORPORATED, priority 2021, published 2024).

Read-outs that look alike come from different tables or passages of the source. Bounds are passed on as bounds.

The target of this test is human NaV 1.8 (Homo sapiens, UniProt Q9Y5Y9). Nature of the test: E-VIPR assay detecting and measuring NaV inhibition properties. Particulars: HEK cells expressing truncated human NaV 1.8. Format: cell-based. The text has this: Sodium ion channels are voltage-dependent proteins that can be activated by inducing membrane voltage changes by applying electric fields. The electrical stimulation instrument and methods of use, referred to as E-VIPR, are described in International Publication No. WO 2002/008748 A3 and C.-J. Huang et al. Characterization of voltage-gated sodium channel blockers by electrical stimulation and fluorescence detection of membrane potential, 24 Nature Biotech. 439-46 (2006), both of which are incorporated by reference in their entirety. The instrument comprises a microtiter plate handler, an optical system for exciting the coumarin dye while simultaneously recording the coumarin and oxonol emissions, a waveform generator, a current- or voltage-controlled amplifier, and parallel electrode pairs that are inserted into assay plate wells. Under integrated computer control, this instrument passes user-programmed electrical stimulus protocols to cells within the wells of the microtiter plate.
Chain of human NaV 1.8 (Q9Y5Y9 126-399 limits assumed): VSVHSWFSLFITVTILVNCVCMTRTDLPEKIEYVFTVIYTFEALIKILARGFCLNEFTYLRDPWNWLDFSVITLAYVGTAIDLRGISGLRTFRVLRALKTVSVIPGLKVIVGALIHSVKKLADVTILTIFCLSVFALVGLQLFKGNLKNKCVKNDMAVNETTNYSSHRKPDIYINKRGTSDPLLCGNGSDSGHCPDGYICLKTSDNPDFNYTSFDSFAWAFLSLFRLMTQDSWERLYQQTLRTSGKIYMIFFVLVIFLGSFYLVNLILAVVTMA
Chain of human NaV 1.8 (Q9Y5Y9 660-890 limits assumed): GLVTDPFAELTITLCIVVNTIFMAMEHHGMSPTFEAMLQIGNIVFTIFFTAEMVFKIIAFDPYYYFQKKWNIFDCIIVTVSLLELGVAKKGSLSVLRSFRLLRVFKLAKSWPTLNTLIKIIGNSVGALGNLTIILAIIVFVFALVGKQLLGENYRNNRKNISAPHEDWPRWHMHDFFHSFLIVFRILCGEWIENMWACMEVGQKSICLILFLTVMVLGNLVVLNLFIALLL
Chain of human NaV 1.8 (Q9Y5Y9 1148-1722 limits assumed): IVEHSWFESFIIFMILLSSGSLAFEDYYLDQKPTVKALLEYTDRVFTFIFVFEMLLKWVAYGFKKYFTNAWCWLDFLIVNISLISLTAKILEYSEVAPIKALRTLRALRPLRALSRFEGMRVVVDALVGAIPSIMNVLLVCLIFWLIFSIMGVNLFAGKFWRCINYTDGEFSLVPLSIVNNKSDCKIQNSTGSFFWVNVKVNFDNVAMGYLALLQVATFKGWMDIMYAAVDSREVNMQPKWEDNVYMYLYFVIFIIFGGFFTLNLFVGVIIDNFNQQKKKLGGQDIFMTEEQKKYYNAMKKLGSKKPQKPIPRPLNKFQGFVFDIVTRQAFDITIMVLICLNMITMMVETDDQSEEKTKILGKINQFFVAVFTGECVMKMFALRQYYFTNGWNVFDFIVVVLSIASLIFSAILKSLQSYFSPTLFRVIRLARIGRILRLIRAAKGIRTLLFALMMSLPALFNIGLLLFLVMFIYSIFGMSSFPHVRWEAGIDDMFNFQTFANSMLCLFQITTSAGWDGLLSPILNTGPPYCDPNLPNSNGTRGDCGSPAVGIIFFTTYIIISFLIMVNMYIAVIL
16-20 hours prior to running the assay on E-VIPR, HEK cells expressing a truncated form of human NaV 1.8 with full channel activity were seeded into microtiter 384-well plates, pre-coated with matrigel, at a density of 25,000 cells per well. 2.5-5% KIR2.1 Bacmam virus was added to the final cell suspension before seeding into cell plates. HEK cells were grown in Dulbecco's Modified Eagle's Medium (DMEM) supplemented with 10% FBS (Fetal Bovine Serum, qualified; Sigma #F4135), 1% NEAA (Non-Essential Amino Acids, Gibco #11140), 1% HEPES (Gibco #15630), 1% Pen-Strep (Penicillin-Streptomycin; Gibco #15140) and 5 μg/ml Blasticidin (Gibco #R210-01). Cells were expanded in vented cap cell culture flasks, with 90-95% humidity and 5% CO2.
Human Serum (HS, Millipore #S1P1-01KL, or Sigma SLBR5469V and SLBR5470V as a 50%/50% mixture, for 25% assay final concentration) • Bath 1 Buffer: • Sodium Chloride 160 mM (9.35 g/L), Potassium Chloride, 4.5 mM (0.335 g/L), Glucose 10 mM (1.8 g/L), Magnesium Chloride (Anhydrous) 1 mM (0.095 g/L), Calcium Chloride 2 mM (0.222 g/L), HEPES 10 mM (2.38 g/L) in water. • Na/TMA C1 Bath 1 Buffer: • Sodium Chloride 96 mM (5.61 g/L), Potassium Chloride 4.5 mM (0.335 g/L), Tetramethylammonium (TMA)-Cl 64 mM (7.01 g/L), Glucose 10 mM (1.8 g/L), Magnesium Chloride (Anhydrous) 1 mM (0.095 g/L), Calcium Chloride 2 mM (0.222 g/L) HEPES 10 mM (2.38 g/L) in water. • Hexyl Dye Solution (2× concentration): • Bath 1 Buffer containing 0.5% P-cyclodextrin (made fresh prior to each use, Sigma #C4767), 8 μM CC2-DMPE and 2 μM DiSBAC6(3). The solution was made by adding 10% Pluronic F127 stock equal to combined volumes of CC2-DMPE and DiSBAC6(3). The order of preparation was first mix Pluronic and CC2-DMPE, then add DiSBAC6(3), then while vortexing add Bath 1/p-Cyclodextrin.
Compound Loading Buffer (2× concentration): Na/TMA C1 Bath1 Buffer containing HS (omitted in experiments run in the absence of human serum (HS)) 50%, VABSC-1 1 mM, BSA 0.2 mg/ml (in Bath-1), KCl 9 mM, DMSO 0.625%.
1) To reach the final concentration in each well, 375 nL of each compound was pre-spotted (in neat DMSO) into polypropylene compound plates at 240× desired final concentration from an intermediate stock concentration of 0.075 mM, in an 11 point dose response, 3-fold dilution, resulting in a top dose of 300 nM final concentration in the cell plate. Vehicle control (neat DMSO), and positive control (an established NaV1.8 inhibitor, 25 μM final in assay in DMSO) were added manually to the outermost columns of each plate respectively. The compound plate was backfilled with 45 μL per well of Compound Loading Buffer resulting in a 240 fold dilution of compound following a 1:1 transfer of compound into the cell plate (see Step 6). Final DMSO concentration for all wells in the assay was 0.625% (0.75% DMSO was supplemented to the Compound Loading Buffer for a final DMSO concentration of 0.625%). […]

[1] abbreviates: no human serum, read-out: IC50 in the E-VIPR Assay.
The mark [2] stands for this setting: in the presence of human serum (compound numbers followed by *), read-out: IC50 in the E-VIPR Assay, performed in the presence of human serum.

For the compound `COc1c([C@H]2[C@H](C(=O)Nc3ccnc(C(C)(O)CO)c3)OC(C)(C)[C@H]2C)ccc(F)c1F` (single isomer, unassigned) [Compound 731], the IC50 under setting [1] fell in the range of 100 to 1000 nM.

`COCCOc1c([C@H]2[C@H](C(=O)Nc3ccnc(N4C(=O)CN(C)C[C@H]4C)c3)O[C@@](C)(C(F)(F)F)[C@H]2C)ccc(F)c1F` [Compound 652, (2R,3S,4S,5R)-3-[3,4-difluoro-2-(2-methoxyethoxy)phenyl]-N-[2-[(2R)-2,4-dimethyl-6-oxo-piperazin-1-yl]-4-pyridyl]-4,5-dimethyl-5-(trifluoromethyl)tetrahydrofuran-2-carboxamide]: the half-inhibitory concentration (IC50) under setting [1] is < 10 nM.

Take `C[C@H]1[C@@H](c2ccc(F)c(F)c2OC(F)F)[C@H](C(=O)Nc2ccnc(C(C)(C)O)c2)O[C@@]1(C)C(F)(F)F` (single isomer, unassigned) [Compound 84]: the IC50 under setting [1] is < 10 nM.

As for `C[C@H]1[C@@H](c2ccc(F)c(F)c2OCCO)[C@H](C(=O)Nc2cccnc2)O[C@@]1(C)C(F)(F)F` [Compound 575, (2R,3S,4S,5R)-3-[3,4-difluoro-2-(2-hydroxyethoxy)phenyl]-4,5-dimethyl-N-(3-pyridyl)-5-(trifluoromethyl)tetrahydrofuran-2-carboxamide], the IC50 under setting [1] is < 10 nM.

Take `Cc1conc1NC(=O)[C@@H]1O[C@@](C)(C(F)(F)F)[C@@H](C)[C@H]1c1ccc(F)c(F)c1OCCO` [Compound 545, (2R,3S,4S,5R)-3-(3,4-difluoro-2-(2-hydroxyethoxy)phenyl)-4,5-dimethyl-N-(4-methylisoxazol-3-yl)-5-(trifluoromethyl)tetrahydrofuran-2-carboxamide]: the IC50 under setting [1] lay in the range of 10 to 100 nM.

Take `COc1c([C@@H]2C[C@](C)(C(F)(F)F)O[C@H]2C(=O)Nc2ccnc([C@@H](O)[C@H](C)O)c2)ccc(F)c1F` (relative stereo) [Compound 700, rel-(2R,3S,5R)-3-(3,4-difluoro-2-methoxyphenyl)-N-(2-((1R,2S)-1,2-dihydroxypropyl)pyridin-4-yl)-5-methyl-5-(trifluoromethyl)tetrahydrofuran-2-carboxamide]: under setting [2], the concentration for half-maximal inhibition (IC50) was in the range of 10 to 100 nM.

With `Cc1cc(NC(=O)[C@@H]2O[C@@](C)(C(F)(F)F)[C@@H](C)[C@H]2c2ccc(F)c(F)c2OCCO)ccn1` [Compound 560, (2R,3S,4S,5R)-3-(3,4-difluoro-2-(2-hydroxyethoxy)phenyl)-4,5-dimethyl-N-(2-methylpyridin-4-yl)-5-(trifluoromethyl)tetrahydrofuran-2-carboxamide], under setting [1], the half-maximal inhibitory concentration (IC50) was 10 to 100 nM.

On to `COc1c(C2C(C(=O)Nc3cc(CO)ncc3C)OC(C)(C(F)(F)F)C2C)ccc(F)c1F` (stereo not shown) [Compound 243, 3-(3,4-difluoro-2-methoxy-phenyl)-N-[2-(hydroxymethyl)-5-methyl-4-pyridyl]-4,5-dimethyl-5-(trifluoromethyl)tetrahydrofuran-2-carboxamide], for which the IC50 under setting [2] was in the range of 10 to 100 nM.

With `COc1c([C@H]2[C@H](C(=O)NC3CCCN(C(C)=O)C3)O[C@@](C)(C(F)(F)F)[C@H]2C)ccc(F)c1F` (stereo partly drawn) [Compound 274, (2R,3S,4S,5R)-N-(1-acetylpiperidin-3-yl)-3-(3,4-difluoro-2-methoxyphenyl)-4,5-dimethyl-5-(trifluoromethyl)tetrahydrofuran-2-carboxamide], the IC50 under setting [1] is ≥ 1000 nM.

Consider `C[C@H]1[C@@H](c2ccc(F)c(F)c2OC(F)F)[C@H](C(=O)Nc2ccnnc2)O[C@@]1(C)C(F)(F)F` (stereo in doubt) [Compound 64, rel-(2R,3S,4S,5R)-3-(2-(difluoromethoxy)-3,4-difluorophenyl)-4,5-dimethyl-N-(pyridazin-4-yl)-5-(trifluoromethyl)tetrahydrofuran-2-carboxamide], for which the IC50 under setting [1] was < 10 nM.

With `COc1c([C@H]2[C@H](C(=O)Nc3ccnc(N4CCN(C)CCC4=O)c3)O[C@@](C)(C(F)(F)F)[C@H]2C)ccc(F)c1F` [Compound 466, (2R,3S,4S,5R)-3-(3,4-difluoro-2-methoxyphenyl)-4,5-dimethyl-N-(2-(4-methyl-7-oxo-1,4-diazepan-1-yl)pyridin-4-yl)-5-(trifluoromethyl)tetrahydrofuran-2-carboxamide], the 50% inhibitory concentration (IC50) under setting [1] was 10 to 100 nM.

With `Cc1nocc1NC(=O)[C@@H]1O[C@@](C)(C(F)(F)F)[C@@H](C)[C@H]1c1ccc(F)c(F)c1OCCN[C@@H]1CCOC1` [Compound 632, (2R,3S,4S,5R)-3-(3,4-difluoro-2-(2-(((R)-tetrahydrofuran-3-yl)amino)ethoxy)phenyl)-4,5-dimethyl-N-(3-methylisoxazol-4-yl)-5-(trifluoromethyl)tetrahydrofuran-2-carboxamide], the IC50 under setting [1] was in the range of 10 to 100 nM.

For `CNC(COC)c1cc(NC(=O)[C@@H]2O[C@@](C)(C(F)(F)F)[C@@H](C)[C@H]2c2ccc(F)c(F)c2OC)ccn1` (single isomer, unassigned) [Compound 412, rel-(2R*,3S*,4S*,5R*)-3-(3,4-difluoro-2-methoxyphenyl)-N-(2-(2-methoxy-1-(methylamino)ethyl)-pyridin-4-yl)-4,5-dimethyl-5-(trifluoromethyl)-tetrahydrofuran-2-carboxamide], the concentration for half-maximal inhibition (IC50) under setting [1] is < 10 nM.

On to `C[C@@H](CO)COc1c([C@H]2[C@H](C(=O)Nc3ccc(C(N)=O)nc3)O[C@@](C)(C(F)(F)F)[C@H]2C)ccc(F)c1F` [Compound 616, 5-((2R,3S,4S,5R)-3-(3,4-difluoro-2-((S)-3-hydroxy-2-methylpropoxy)phenyl)-4,5-dimethyl-5-(trifluoromethyl)tetrahydrofuran-2-carboxamido)picolinamide], for which, under setting [1], the IC50 lay in the range of 100 to 1000 nM.

In the case of `COc1c([C@H]2[C@H](C(=O)NC3CN(C)C3)O[C@@](C)(C(F)(F)F)[C@H]2C)ccc(F)c1F` [Compound 278, (2R,3S,4S,5R)-3-(3,4-difluoro-2-methoxyphenyl)-4,5-dimethyl-N-(1-methylazetidin-3-yl)-5-(trifluoromethyl)tetrahydrofuran-2-carboxamide], under setting [1], the IC50 is ≥ 1000 nM.

Turning to `C[C@H]1[C@@H](c2ccc(F)c(F)c2OC(F)F)[C@H](C(=O)Nc2cccnc2)O[C@@]1(C)C(F)(F)F` (single isomer, unassigned) [Compound 65], the IC50 under setting [2] lay within 10 to 100 nM.

On to `COc1c(C2C(C(=O)Nc3ccn(C)c(=O)c3)OC(C)(C(F)(F)F)C2C)ccc(F)c1F` (single isomer, unassigned) [Compound 28, 3-(3,4-difluoro-2-methoxy-phenyl)-4,5-dimethyl-N-(1-methyl-2-oxo-4-pyridyl)-5-(trifluoromethyl)tetrahydrofuran-2-carboxamide], for which the IC50 under setting [1] is < 10 nM.

Take `COc1c([C@H]2[C@H](C(=O)NC3CC(F)(F)C3)O[C@@](C)(C(F)(F)F)[C@H]2C)ccc(F)c1F` [Compound 280, (2R,3S,4S,5R)-3-(3,4-difluoro-2-methoxyphenyl)-N-(3,3-difluorocyclobutyl)-4,5-dimethyl-5-(trifluoromethyl)tetrahydrofuran-2-carboxamide]: the IC50 under setting [1] lay in the range of 100 to 1000 nM.

As for `COc1c(C2C(C(=O)Nc3ccn(C)c(=O)c3)OC(C)(C(F)(F)F)C2C)ccc(F)c1F` (single isomer, unassigned) [Compound 27, 3-(3,4-difluoro-2-methoxy-phenyl)-4,5-dimethyl-N-(1-methyl-2-oxo-4-pyridyl)-5-(trifluoromethyl)tetrahydrofuran-2-carboxamide], the IC50 under setting [2] was ≥ 1000 nM.

In general, IC50 refers to the concentration that inhibits the measured activity by half.
